Assay results as given in patent publication US4467086A, “Cephalosporin antibiotic” (Glaxo Group Limited, priority 1979, dated 1984).
Structures can show the parent of a compound that is named as a salt.

Key:
[1] = storage stability of the solid; assay type: physicochemical
indolepositive Proteus = assay: antibacterial activity, indole-positive Proteus; assay type: cell-based; conditions: organisms normally difficult to combat with β-lactam antibiotics
gram-negative bacteria = assay: experimental infections in mice with gram-negative bacteria; assay type: in vivo
Pseudomonas organisms = assay: antibacterial activity, Pseudomonas; assay type: cell-based; conditions: organisms normally difficult to combat with β-lactam antibiotics
early clinical results = assay type: in vivo, human
Pseudomonas aeruginosa = assay: experimental infections in mice with Pseudomonas aeruginosa; assay type: in vivo
Providence = assay: antibacterial activity, Providence; assay type: cell-based; conditions: organisms normally difficult to combat with β-lactam antibiotics
[2] = in vivo
[3] = pharmacokinetics in human volunteers; assay type: in vivo
Serratia = assay: antibacterial activity, Serratia; assay type: cell-based; conditions: organisms normally difficult to combat with β-lactam antibiotics
bacteria = assay: antibacterial properties: human serum effect, inoculum effect, bactericidal action; assay type: cell-based
[4] = system: gram-negative organisms, including many β-lactamase-producing gram-negative strains; conditions: as described in UK Patent Specification No. 2025398, cited from earlier work

SMILES | stability ([1]; crystalline form, stored for an extended period at a temperature of 50° C.) | activity against indole-positive Proteus (indolepositive Proteus) | treatment of experimental infections (gram-negative bacteria) | activity against Pseudomonas (Pseudomonas organisms) | clinical antibiotic properties (early clinical results) | protection against Pseudomonas aeruginosa infection (Pseudomonas aeruginosa) | protection compared with aminoglycoside treatment (Pseudomonas aeruginosa; versus an aminoglycoside such as amikacin) | activity against Providence (Providence) | distribution in the body [2] | serum levels after injection [3] | activity against Serratia (Serratia) | effect of human serum on antibacterial properties (bacteria) | antibiotic activity spectrum [4] | activity against gram-negative organisms ([4]; including many β-lactamase-producing gram-negative strains) | stability ([1]; amorphous solid, especially at elevated temperatures)
CC(C)(O/N=C(\C(=O)N[C@@H]1C(=O)N2C(C(=O)[O-])=C(C[n+]3ccccc3)CS[C@H]12)c1csc(N)n1)C(=O)O [(6R,7R)-7-[(Z)-2-(2-aminothiazol-4-yl)-2-(2-carboxyprop-2-oxyimino)acetamido]-3-(1-pyridiniummethyl)ceph-3-em-4-carboxylate bishydrochloride] | remarkably stable |  |  |  |  |  |  |  |  |  |  |  |  |  | 
CC(C)(O/N=C(\C(=O)N[C@@H]1C(=O)N2C(C(=O)[O-])=C(C[n+]3ccccc3)CS[C@H]12)c1csc(N)n1)C(=O)O [ceftazidime, (6R,7R)-7-[(Z)-2-(2-aminothiazol-4-yl)-2-(2-carboxyprop-2-oxyimino)acetamido]-3-(1-pyridiniummethyl)ceph-3-em-4-carboxylate] |  | excellent activity | successfully treated | excellent activity | reproduces in the clinic the excellent antibiotic properties | excellent protection | comparable | excellent activity | well distributed | high and long lasting | excellent activity | not impaired | broad spectrum antibiotic activity | unusually high activity | not particularly satisfactory
